Experimental data reported in a melting point compilation (Tetko et al.; mined from patent text by program, amines drawn as free bases though some values may be those of a salt).

| Compound | melting point [°C] |
| --- | --- |
| O=C(CBr)NCCSC(c1ccccc1)(c1ccccc1)c1ccccc1 | 130 to 135 |
| CS(=O)(=O)CC(=O)NC(=O)N1CC1C#N (stereo not drawn) | 126 to 128 |
| CCCCCCCCC1C=CC(/C=C/c2ccc(C(=O)O)o2)=C2N=C3CCCC(C)(C)C3=C21 (stereo not drawn) | 115 to 117 |
| Cc1ccc(C#CC2(O)CN3CCC2CC3)nc1 (stereo not drawn) | 176 to 180 |
| CCOC(=O)N(c1ccc(C(O)(C(F)(F)F)C(F)(F)F)cc1)S(C)(=O)=O | 108 to 112 |
| CC(=NNc1ccc(C2=NNC(=O)CO2)cc1)c1ccncc1 | 195 |
| N#CC1(c2ccccc2)C2CC3CC(C2)CC1C3 (stereo not drawn) | 120 to 122 |
| CCCN(CCC)c1nc2cc3c(cc2s1)CC(N)C3 (stereo not drawn) | 127 to 128 |
| CS(=O)(=O)Nc1cc(-c2ccc(S(C)(=O)=O)cc2)c(-c2ccc(F)cc2)s1 | 87 to 90 |
| COc1cc(C)cc(S(=O)(=O)c2cccc(F)c2C#N)c1 | 160 to 162 |
| COC(=O)Cc1nc(-c2ccc(OC)c(OC)c2)c2cc(OC)c(OC)cc2n1 | 152 to 153 |
| O=c1[nH]ncc2c1c(O)nc1cc(Cl)ccc12 | > 350 |
| N#CC(C#N)(CC=C(Cl)Cl)Cc1ccc(Cl)cc1 | 67.5 |
| CCOC(=O)c1c(CC)[nH]c(CC)c1C | 101 to 103 |
| COC(=O)/C=C/c1nc(C=O)ccc1OC | 132 to 134 |
| COc1ccc(C(=O)O)c(OCc2cccc(OCc3ccc4ccccc4n3)c2)c1 | 117 to 118 |
| CCCC(C)Oc1cc(-n2c(=O)cc(C(F)(F)F)n(C)c2=O)c(F)cc1Cl (stereo not drawn) | 94 to 97 |
| CCOC(=O)c1cc2cc(SC(=O)N(C)C)ccc2oc1=O | 133 to 134 |
| CCCCOC(=O)c1cc(Cl)ccc1N | 37 to 39 |
| Fc1ccc2c(C3=CCC4(CC3)OCCO4)c[nH]c2c1 | 196 to 197 |
| N#CC(=Cc1cc(F)ccc1[N+](=O)[O-])C(N)=O | 162 to 166 |

Next, values leading:

| melting point [°C] | Compound |
| --- | --- |
| 99 to 102 | COc1c2c(c(OC)c(OC)c1OC)CC(CCCCOc1ccc(C(=O)N(C)C)cc1)C2 |
| 99.1 to 99.6 | O=C1N(Cc2ccc(Cl)c(Cl)c2)C(=NCC(F)(F)F)SCN1c1ccccc1 |
| 131 to 133 | COC1(c2cc(F)cc(Sc3ccc(C(=NO)C(F)(F)F)cc3)c2)CCOCC1 |
| 103 to 104 | COc1ccc2c(c1)c(CC(=O)OC(C)(C)C)c(C)n2C(=O)c1ccc(Cl)cc1 |
| 231 to 234 | CCOC(=O)c1cn(C(C)F)c2cc(-n3cccc3)c(F)cc2c1=O (stereo not drawn) |
| 248 to 252 | COc1ccc(-c2ccc3[nH]c(=O)ccc3c2)cn1 |
| 67 to 68 | CCCCOC(=O)c1ccc(NC(=NC(=O)OCC)SC)cc1 |
| 203 to 206 | CCc1nc2c(N)nc3ccccc3c2n1CCCCNC(=O)c1ccccc1 |
| 192 | COc1ccc(CCN(CC(C)C)S(=O)(=O)N[C@@H](Cc2ccc(NC(=O)c3c(Cl)cncc3Cl)cc2)C(=O)O)cc1OC |
| 125 | COCCOC(=O)OC[C@@H](O)[C@@H]1CC(c2ccc(-c3ccc(N4C[C@H](Cn5ccnn5)OC4=O)cc3F)cn2)=NO1 |
| 159 | O=C(NCCO)c1cc(-c2ccnc(Nc3cccc(OC(F)(F)C(F)F)c3)n2)ccn1 |
| 318 to 322 | Cc1[nH]cc2c(=O)n(-c3ccc(Cl)cc3)nc-2c1-c1cccc(C(=O)N2CCN(C)CC2)c1 |
| 60 | Cc1ccc(-c2cccnc2N2CCC(C(=O)O)CC2)cc1C(=O)NCC12CC3CC(CC(C3)C1)C2 |
| 232 | CS(=O)(=O)NC(=O)C(Cc1ccc(OCc2ccccc2)cc1)NC(=O)c1cn2cc(-c3ccc(Cl)cc3)ccc2n1 (stereo not drawn) |
| 89 to 91 | COC(=O)C[C@H](O)CC(=O)C=Cc1c(-c2ccc(F)cc2)c(-c2ccccc2)c(C(=O)Nc2cccc(S(N)(=O)=O)c2)n1C(C)C |
| 196 to 197 | CCCOC(=O)Nc1cn2nc(OCc3cc(C)ccc3C)ccc2n1 |
| 186 | CCC1CC(=O)N(CCc2ccc(NC(=O)c3cccs3)cc2)N=C1c1ccc(OC)c(OC)c1 (stereo not drawn) |
